Read-outs that look alike come from different tables or passages of the source.
Columns and labels:
Type in all cases: in vivo
[1] = system: Polygonum convolvulus (POLCO); assay: Pre-emergence herbicidal action against POLCO
Method in brief: (§1)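 Seeds sown in pots and covered with soil; WP or EC formulations sprayed onto the soil surface at 600 l/ha water with 0.5% additive, at 320 g/ha or lower. Greenhouse growth for about 3 weeks, then visual scoring as % effect against untreated controls (100% = plants dead).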

Avena fatua (AVEFA) [2] = assay: Post-emergence herbicidal action against AVEFA; settings: 320 g/ha, visual rating about 3 weeks after treatment
Method in brief: (§2)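 Greenhouse plants sprayed at the one-leaf stage, 2–3 weeks after sowing, with WP or EC formulations plus 0.5% additive at 600 l/ha water. Activity rated visually after about 3 weeks versus untreated controls (100% = dead, 0% = like control), at 320 g/ha or lower.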

Lolium rigidum (LOLRI) [3] = assay: Pre-emergence herbicidal action against LOLRI; settings: dosage 320 g/ha
Method in brief: as §1

[4] = system: Alopecurus myosuroides (ALOMY); assay: Post-emergence herbicidal action against ALOMY; settings: 320 g/ha, visual rating about 3 weeks after treatment vs untreated controls (100% = plants have died, 0% = like control plants)
Method in brief: as §2

Setaria viridis (SETVI) [5] = assay: Post-emergence herbicidal action against SETVI
Method in brief: as §2

[6] = system: Polygonum convolvulus (POLCO); assay: Post-emergence herbicidal action against POLCO
Method in brief: as §2

Viola tricolor (VIOTR) [7] = assay: Post-emergence herbicidal action against VIOTR
Method in brief: as §2

Zea mays (ZEAMX) [8] = settings: crop plant compatibility, 80 g/ha, effect vs untreated controls
Method in brief: (§3)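 Effects were read visually as % versus untreated controls (0% = no effect, 100% = death) about 3 weeks post-treatment. Application was a post-emergence spray at the one-leaf stage of WP/EC formulations with 0.5% additive at 600 l/ha. Different dosages are denoted a, b and c.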

Oryza sativa (ORYSA) [9] = settings: crop plant compatibility, effect in comparison to untreated controls
Method in brief: as §3

[10] = system: Echinochloa crus-galli (ECHCG); assay: Post-emergence herbicidal action against ECHCG
Method in brief: as §2

Viola tricolor (VIOTR) [11] = assay: Pre-emergence herbicidal action against VIOTR
Method in brief: as §1

Zea mays (ZEAMX) [12] = settings: pre-emergence, 80 g/ha, crop plant compatibility, in comparison to untreated controls
Method in brief: (§4)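 Crop injury rated visually in percent against untreated plants roughly 3 weeks after treatment (0% no effect, 100% plants dead). Compounds, as WP or EC with 0.5% additive in 600 l/ha water, were applied to the covering soil right after sowing; greenhouse growth. Suffixes a, b, c denote different dosages.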

Oryza sativa (ORYSA) [13] = settings: pre-emergence, 80 g/ha, crop plant compatibility, in comparison to untreated controls
Method in brief: as §4

[14] = system: Verconica persica (VERPE); assay: Post-emergence herbicidal action against VERPE
Method in brief: as §2

[15] = system: Amaranthus retroflexus (AMARE); assay: Pre-emergence herbicidal action against AMARE; settings: visual scoring after about 3 weeks vs untreated controls
Method in brief: as §1

Lolium rigidum (LOLRI) [16] = assay: Post-emergence herbicidal action against LOLRI; settings: dosage 320 g/ha
Method in brief: as §2

Avena fatua (AVEFA) [17] = assay: Pre-emergence herbicidal action against AVEFA; settings: 320 g/ha, visual scoring after about 3 weeks vs untreated controls
Method in brief: as §1

[18] = system: Alopecurus myosuroides (ALOMY); assay: Pre-emergence herbicidal action against ALOMY; settings: 320 g/ha; scored visually after about 3 weeks; 100% = plants have died
Method in brief: as §1

[19] = system: Abutilon theophrasti (ABUTH); assay: Pre-emergence herbicidal action against ABUTH; settings: Dosage column 320 g/ha (title prints 3200 g/ha); scored visually after about 3 weeks; 100% = plants have died
Method in brief: as §1

[20] = system: Amaranthus retroflexus (AMARE); assay: Post-emergence herbicidal action against AMARE
Method in brief: as §2

[21] = system: Verconica persica (VERPE); assay: Pre-emergence herbicidal action against VERPE; settings: dosage 320 g/ha
Method in brief: as §1

Setaria viridis (SETVI) [22] = assay: Pre-emergence herbicidal action against SETVI
Method in brief: as §1

[23] = system: Echinochloa crus-galli (ECHCG); assay: Pre-emergence herbicidal action against ECHCG; settings: dosage 320 g/ha
Method in brief: as §1

[24] = system: Triticum aestivum (TRZAS); settings: crop plant compatibility, effect vs untreated controls
Method in brief: as §3

[25] = system: Matricaria inodora (MATIN); assay: Pre-emergence herbicidal action against MATIN
Method in brief: as §1

[26] = system: Pharbitis purpurea (PHBPU); assay: Post-emergence herbicidal action against PHBPU; settings: dosage 320 g/ha
Method in brief: as §2

[27] = system: Pharbitis purpurea (PHBPU); assay: Pre-emergence herbicidal action against PHBPU
Method in brief: as §1

[28] = system: Triticum aestivum (TRZAS); settings: pre-emergence, 80 g/ha, crop plant compatibility, in comparison to untreated controls
Method in brief: as §4

[29] = system: Matricaria inodora (MATIN); assay: Post-emergence herbicidal action against MATIN; settings: dosage 320 g/ha
Method in brief: as §2

[30] = system: Abutilon theophrasti (ABUTH); assay: Post-emergence herbicidal action against ABUTH; settings: visual rating about 3 weeks after treatment vs untreated controls (100% = plants have died, 0% = like control plants)
Method in brief: as §2

[31] = 80 g/ha, visual rating about 3 weeks after treatment vs untreated controls (100% = plants have died, 0% = like control plants)
[32] = 320 g/ha, visual rating about 3 weeks after treatment

SMILES	Pre-emergence action against POLCO in % ([1]; dosage 320 g/ha) [%]	Post-emergence action against AVEFA in % (Avena fatua (AVEFA) [2]) [%]	Pre-emergence action against LOLRI in % (Lolium rigidum (LOLRI) [3]) [%]	Post-emergence action against SETVI in % (Setaria viridis (SETVI) [5]; dosage 320 g/ha) [%]	Post-emergence action against POLCO in % ([6]; dosage 320 g/ha) [%]	Post-emergence action against ORYSA in % (Oryza sativa (ORYSA) [9]; 80 g/ha) [%]	Post-emergence action against ECHCG in % ([10]; dosage 320 g/ha) [%]	Pre-emergence action against VIOTR in % (Viola tricolor (VIOTR) [11]; 320 g/ha, Viola tricolor) [%]	Pre-emergence action against VIOTR in % (Viola tricolor (VIOTR) [11]; dosage 80 g/ha) [%]	Post-emergence action against VERPE in % ([14]; 320 g/ha, VERPE) [%]	Pre-emergence action against AMARE in % ([15]; 80 g/ha) [%]	Pre-emergence action against AMARE in % ([15]; 320 g/ha) [%]	Post-emergence action against AMARE in % [20, 31] [%]	Post-emergence action against AMARE in % [20, 32] [%]	Pre-emergence action against SETVI in % (Setaria viridis (SETVI) [22]; dosage 320 g/ha) [%]	Pre-emergence action against ECHCG in % [23] [%]	Post-emergence action against TRZAS in % ([24]; 80 g/ha) [%]	Pre-emergence action against MATIN in % ([25]; dosage 320 g/ha) [%]	Pre-emergence action against PHBPU in % ([27]; dosage 320 g/ha) [%]	Pre-emergence action against TRZAS in % [28] [%]	other results
O=C(O)COc1nn(-c2ncccc2C(F)(F)F)c(-c2ccc(F)nc2)c1Br [Example I-310]	90	100	100	90	80	10	90	100	90	80	80	100	80	80							Post-emergence action against ALOMY in % [4]: 90%; Post-emergence action against POLCO in % ([6]; dosage 80 g/ha): 80%; Post-emergence action against VIOTR in % (Viola tricolor (VIOTR) [7]; 80 g/ha): 80%; Post-emergence action against VIOTR in % (Viola tricolor (VIOTR) [7]; 320 g/ha): 90%; Post-emergence action against ZEAMX in % (Zea mays (ZEAMX) [8]): 0%; Post-emergence action against ORYSA in % (Oryza sativa (ORYSA) [9]; 320 g/ha): 20%; Pre-emergence action against ZEAMX in % (Zea mays (ZEAMX) [12]): 0%; Pre-emergence action against ORYSA in % (Oryza sativa (ORYSA) [13]): 0%; Post-emergence action against LOLRI in % (Lolium rigidum (LOLRI) [16]): 90%; Pre-emergence action against AVEFA in % (Avena fatua (AVEFA) [17]): 90%; Pre-emergence action against ALOMY [18]: 100%; Pre-emergence action against ABUTH [19]: 80%
O=C(O)C1CCCN1C(=O)COc1nn(-c2ccccn2)c(-c2ccc(F)nc2)c1Br (centres unmarked) [Example I-111]	100		100		80	0	90	100	80		90	100	80	90	100	100	0	80			Pre-emergence action against VERPE in % [21]: 90%; Pre-emergence action against POLCO in % ([1]; dosage 80 g/ha): 80%; Pre-emergence action against SETVI in % (Setaria viridis (SETVI) [22]; dosage 80 g/ha): 90%; Post-emergence action against ALOMY in % [4]: 100%; Post-emergence action against ORYSA in % (Oryza sativa (ORYSA) [9]; 320 g/ha): 0%; Pre-emergence action against ZEAMX in % (Zea mays (ZEAMX) [12]): 0%; Pre-emergence action against ORYSA in % (Oryza sativa (ORYSA) [13]): 0%; Pre-emergence action against AVEFA in % (Avena fatua (AVEFA) [17]): 80%; Pre-emergence action against ALOMY [18]: 90%; Pre-emergence action against ABUTH [19]: 80%
COCCOC(=O)COc1nn(-c2cccc(C)n2)c(-c2ccc(F)nc2)c1Br [Example I-277]			90			10	80			80		80			80	80	0		80	0	Post-emergence action against PHBPU in % [26]: 80%; Post-emergence action against ZEAMX in % (Zea mays (ZEAMX) [8]): 10%; Post-emergence action against TRZAS in % ([24]; 320 g/ha): 20%
COC(=O)CCOC(=O)COc1nn(-c2ncccc2C(F)(F)F)c(-c2cncc(F)c2)c1Br [Example I-160]	90			80		0		100	90	90		80				90	20	80	90	20	Pre-emergence action against VERPE in % [21]: 90%; Post-emergence action against PHBPU in % [26]: 90%; Pre-emergence action against PHBPU in % ([27]; dosage 80 g/ha): 80%; Post-emergence action against VERPE in % ([14]; dosage 80 g/ha): 80%
O=C(O)CSc1nn(-c2ccccn2)c(-c2cncc(F)c2)c1Cl [Example I-217]	80	90	100	90	80	0	90	90			80	100	90	90	90	90		90	90	0	Post-emergence action against SETVI in % (Setaria viridis (SETVI) [5]; dosage 80 g/ha): 80%; Post-emergence action against POLCO in % ([6]; dosage 80 g/ha): 80%; Post-emergence action against VIOTR in % (Viola tricolor (VIOTR) [7]; 80 g/ha): 80%; Post-emergence action against VIOTR in % (Viola tricolor (VIOTR) [7]; 320 g/ha): 90%; Post-emergence action against ECHCG in % ([10]; dosage 80 g/ha): 90%; Pre-emergence action against MATIN in % ([25]; dosage 80 g/ha): 80%; Post-emergence action against LOLRI in % (Lolium rigidum (LOLRI) [16]): 80%; Post-emergence action against MATIN in % [29]: 80%; Post-emergence action against ABUTH in % ([30]; 80 g/ha): 80%; Post-emergence action against ABUTH in % ([30]; 320 g/ha): 90%

— US20240041042A1, “1-(PYRIDYL)-5-AZINYLPYRAZOLE DERIVATIVES, AND THEIR USE FOR CONTROL OF UNDESIRED PLANT GROWTH” (Bayer Aktiengesellschaft, priority 2020, published 2024)
